We go through three compounds from patent US20260374793A1, “MITOCHONDRIA SPECIFIC TRANSCRIPTION INHIBITORS” (LUNELLA BIOTECH, INC., priority 2023, published 2026).

The subject of series [1] is human cancer cell xenografts. To be noted: oral; cited from earlier work.
The subject of series [2] is mice. Particulars: oral; four-week trial in mice; cited from earlier work.
For series [3], the system named is mitochondrial RNA polymerase (POLRMT). Particulars: as a POLRMT inhibitor; cited from earlier work.
Series [4] has as its system MCF-7 cells. In words: 3D anchorage independent growth (mammosphere formation) assay, MCF-7. It counts as cell-based, human. From the text: The following paragraphs summarize data for Compound [I]. It should be appreciated that preliminary results for other embodiments are consistent with the results for Compound [I], but analysis is ongoing. FIGS. 1A-1C show mammosphere formation results, SRB assay results on MCF-7 cells, and SRB assay results on BJ1-hTERT cells, for different concentrations of Compound [I]. The asterisks indicate P-value, with ** indicating P<0.01, *** indicating P<0.001, and **** indicating P <0.0001. […] FIGS. 1B and 1C show results of the SRB assay for (B) MCF-7 cells and (C) hTERT-BJ1 cells.
(§1) FIGS. 5A and 5B show IC50 curves for Compound [I] calculated using GraphPad Prism. The results are based on mammosphere formation assay of Compound [I] on both colonies and spheres, for MCF-7 cells (FIG. 5A), and for MDA-MB-231 cells (FIG. 5B).
(§2) 3D Anchorage Independent Growth Assay: This assay is also referred to as the mammosphere formation assay. A single-cell suspension was prepared using enzymatic, and manual disaggregation (25-g needle). Then, cells were plated at a density of 500 cells/cm^2 in mammosphere medium (DMEM-F12+1× B-27 Plus Supplement+20 ng/ml EGF+Pen/Strep) under non-adherent conditions, in culture dishes pre-coated with (2-hydroxyethylmethacrylate) (poly-HEMA, Sigma Aldrich Inc.), called “mammosphere plates.” Cells were grown for 5 days and maintained in a humidified incubator at 37 °C. After 5 days of culture, 3D-mammospheres >50 μm were counted using an eye piece (“graticule”), and the percentage of cells plated which formed spheres was calculated and is referred to as percent mammosphere formation, and was normalized to one (1=100% MFE). 3D mammosphere formation efficiency (MFE) was analyzed in both the ATP-low and ATP-high sub-populations of cells. All 3D mammosphere experiments were performed in triplicate, at least 3 times independently.

The test system of series [5] is MDA-MB-231 cells. The series can be described thus: 3D anchorage independent growth (mammosphere formation) assay, MDA-MB-231. It counts as cell-based. The protocol:
Bar graphs are shown as the mean±SEM; t-test, two-tailed test: * P<0.05, ** P<0.01, **** P<0.0001.
as §1, §2

Series [6] relates to MCF-7 cells. In words: 2D colony formation, MCF-7. It counts as cell-based, human.
Description: FIGS. 2A and 2B show the effect of Compound [I] at different concentrations on MCF-7 colony formation (A) in petri dishes, and (B) expressed in terms of colony formation relative to the control.
as §1

Series [7] concerns MDA-MB-231 cells. In words: 2D colony formation, MDA-MB-231. It counts as cell-based.
Description: FIGS. 4A and 4B show the effect of Compound [I] at different concentrations on MDA-MB-231 colony formation (A) representative phase images of 2D-colonies, and (B) expressed in terms of colony formation relative to the control. […] Bar graphs are shown as the mean±SEM; t-test, two-tailed test: **** P<0.0001.
as §1

Series [8] deals with MCF-7 cells. In words: Seahorse XF96 oxygen consumption rate (OCR), mitochondrial respiration, MCF-7. It counts as cell-based, human. The protocol: FIGS. 6A-6D show mitochondrial respiration, basal respiration, maximal respiration, and ATP production, respectively, for different concentrations of Compound [I] on MCF-7 cells. The metabolic profile MCF-7 was performed using the Seahorse XF96 Analyzer after 6 days of treatment with Compound [I].

Series [9] has as its system MCF-7 cells. The series can be described thus: Extracellular acidification rate (ECAR), glycolytic function, MCF-7. It counts as cell-based, human. The source says:
FIGS. 7A-7D show glycolytic function, glycolysis, glycolytic capacity, and glycolytic reserve, respectively, for different concentrations of Compound [I] on MCF-7 cells.

Series [10] has as its system MDA-MB-231 cells. The series can be described thus: Chorio-allantoic membrane (CAM) assay in chicken eggs, tumor growth. It counts as in vivo. Particulars: daily for 8 days; tumors weighed day E18; FIG. 8A. On the procedure:
The well-established chorio-allantoic membrane (CAM) assay in chicken eggs were used to quantitatively measure tumor growth in MDA-MB-231 cells. An inoculum of 1×10^6 MDA-MB-231 cells was added onto the Upper CAM of each egg on Day 9 and then eggs were then randomized into groups. On day 10, tumors were detectable and were then treated daily for 8 days with vehicle alone (1% DMSO in PBS), or Compound [I]. After 8 days of drug administration, on day E18, all tumors were weighed. […] Bar graphs are shown as the mean±SEM; t-test, two tailed test: * P<0.05, **** P<0.0001.

In series [11] the test system is MDA-MB-231 cells. The series can be described thus: CAM assay in chicken eggs, spontaneous tumor metastasis (qPCR of human Alu sequences). It counts as in vivo. To be noted: daily for 8 days, Lower CAM, FIG. 8B. The protocol: The CAM assay was used in chicken eggs to quantitatively measure spontaneous tumor metastasis in MDA-MB-231 cells. An inoculum of 1×10^6 MDA-MB-231 cells was added onto the Upper CAM of each egg on Day 9 and then eggs were then randomized into groups. On day 10, tumors were detectable and they were then treated daily for 8 days, with vehicle alone (1% DMSO in PBS), or Compound [I]. After 8 days of drug administration, the Lower CAM was collected to evaluate the number of metastatic cells and analyzed by qPCR with specific primers for Human Alu sequences. […] Bar graph is shown as the mean±SEM; t-test, two tailed test: ns P >0.05, ** P <0.01.
Background: Quantitative PCR measures a nucleic acid by following its amplification.

Series [12] has as its system chicken embryo. In words: In vivo chicken embryo toxicity assessment (CAM assay).
In series [13] the test system is MCF-7 cells. The series can be described thus: SRB cell viability assay, MCF-7. Particulars: Homo sapiens, MCF7, cytotoxic starting at, FIG. 1B, read-out: concentration at which cytotoxicity starts. It counts as cell-based. The source says:
(§3) The mitochondria specific transcription inhibitor (MSTI) compounds disclosed herein represent a new class of compounds having exceptional selectivity and activity towards cancer cells. Embodiments of the MSTI compounds disclosed herein may be used as therapeutic agent to selectively eradicate CSCs for treating and/or preventing tumor recurrence and/or metastasis. […] This assay measures the amount of residual protein that adheres to tissue culture dishes and is a surrogate marker of cell viability.
(§4) Reagents and Model Cell Lines: It should be apparent that other cell lines may be used without departing from the present approach. The human breast adenocarcinoma cell line MCF-7 was from the American Type Culture Collection (ATCC). hTERT-BJ1 cells were from Clontech, Inc. MCF-7 and hTERT-BJ 1 cells were grown in DMEM supplemented with 10% fetal bovine serum, GlutaMAX and 1% penicillin-streptomycin and incubated at 37C in a humidified 5% C02 incubator. The medium was changed 2-3 times/week.
(§5) The present approach includes methods of confirming cell viability. Persons of skill in the art may select one or more methods for confirming cell viability suitable for the particular embodiment. […] Finally, the protein-bound dye was dissolved in a 10 mM Tris, pH 8.8 solution and read using the plate reader at 540-nm. […]

Series [14] can be described thus: SRB cell viability assay, hTERT-BJ1. It counts as cell-based. To be noted: human, hTERT-BJ1 cells, cytotoxic starting at about, FIG. 1C, read-out: concentration at which cytotoxicity starts.
Description: as §3, §4, §5

A short description of series [15]: In vivo chicken embryo toxicity assessment (CAM assay). To be noted: chicken, embryo.

The structures appear in SMILES notation.

In the case of `C[C@@H](Oc1ccc2c(-c3ccc(F)cc3Cl)cc(=O)oc2c1)C(=O)N1CCC[C@H](C(=O)O)C1` [POLRMT inhibitor], the anti-tumor effects result in series [1] is on record as “strong anti-tumor effects”. The “OXPHOS dysfunction or toxicity” value in series [2] is on record as “no evidence of OXPHOS dysfunction or toxicity”. Moreover, the “mitochondrial DNA expression” value in series [3] was “inhibits mitochondrial DNA expression”.

Take `CCN(CC(=O)NCCN(C)C)C(=O)[C@@H](C)Oc1ccc2c(-c3ccc(NC(=O)CCCCCCCCCCC[P+](c4ccccc4)(c4ccccc4)c4ccccc4)cc3Cl)cc(=O)oc2c1.[Cl-]` [Compound [I]]: the “inhibition of MCF-7 spheres” value in series [4] (10 μM, FIG. 1A) is “near complete inhibition”; in series [4] (at all concentrations, FIG. 1A), “inhibition of MCF-7 spheres at all concentrations”. The “MDA-MB-231 3D mammosphere formation” value in [5] (FIG. 3A) is given as “significantly decreased”. In [6] (2D colonies, FIG. 2A), the MCF-7 colony formation result was “significantly decreased”. The “effect on colony formation versus sphere formation” value is on record as “more effective on colony formation, as compared to sphere formation” in series [6] (MCF-7, from IC50 values of Table 1) and “more effective on colony formation, as compared to sphere formation” in series [7] (MDA-MB-231, from IC50 values of Table 1). In addition, in [7] (2D colonies, FIGS. 4A-4B, **** P<0.0001), the MDA-MB-231 colony formation entry is given as “significantly decreases”. Further, the “oxygen consumption rate (OCR)” value in series [8] (0.5 μM and 1 μM, after 6 days of treatment, FIG. 6A) is recorded as “reduction”. The basal respiration result in series [8] (0.5 μM and 1 μM, after 6 days of treatment, FIG. 6B) is listed as “decreases”. Besides, in series [8] (0.5 μM and 1 μM, after 6 days of treatment, FIG. 6C), the maximal respiration result is “decreases”. Moreover, the ATP production result in series [8] (0.5 μM and 1 μM, after 6 days of treatment, FIG. 6D) was “decreases”. For the same compound, the mitochondrial respiration entry in series [8] (overall conclusion) is given as “specifically inhibits mitochondrial respiration”. Further, the glycolysis result in series [9] (FIG. 7B) is listed as “No significant changes”. Moreover, in series [9] (FIG. 7C), the glycolytic capacity entry is reported as “No significant changes”. Besides, in [9] (FIG. 7D), the glycolytic reserve result is “No significant changes”. The “glycolysis (overall conclusion)” value in series [9] (FIGS. 7A-7D) was “does not affect glycolysis”. In addition, the tumor growth entry in series [10] is given as “potently inhibits tumor growth”. Besides, the metastasis result in series [11] is “targets and prevent cancer metastasis”. Besides, the Alive in series [12] (100 μM, of 17 embryos) is 17; in series [12] (250 μM, of 16 embryos), 16; in series [12] (500 μM, of 16 embryos), 14. For the same compound, the Dead in series [12] (100 μM, of 17 embryos) was 0; in series [12] (250 μM, of 16 embryos), 0; in [12] (500 μM, of 16 embryos) it was 2. The “toxicity towards normal cells” value in [12] (at concentrations several orders of magnitude above those with potent activity, FIG. 9) is recorded as “not toxic towards normal cells”.

As to `CCN(CC(=O)NCCN(C)C)C(=O)[C@@H](C)Oc1ccc2c(-c3ccc(NC(=O)CCCCCCCCCCC[P+](c4ccccc4)(c4ccccc4)c4ccccc4)cc3Cl)cc(=O)oc2c1.[Cl-]` [Compound [I], [12-[3-chloro-4-[7-[(1R)-2-[2-[2-(dimethylamino)ethylamino]-2-oxo-ethyl]-ethyl-amino]-1-methyl-2-oxo-ethoxy]-2-oxo-chromen-4-yl]anilino]-12-oxo-dodecyl]-triphenyl-phosphonium chloride], the inhibition (in general, the relative decrease from the control value, in per cent) at 2.5 µM in series [4] (Homo sapiens, MCF7, 2.5 μM, FIG. 1A, read-out: inhibition of MCF-7 spheres) is above 50%. For the same compound, the IC50 – broadly, the point on the concentration scale where inhibition reaches its midpoint – in series [4] (Homo sapiens, MCF7, MCF-7 spheres, GraphPad Prism, FIG. 5A) was determined as 3200 nM; in series [5] (Homo sapiens, MDA-MB-231 spheres, GraphPad Prism, FIG. 5B) it was 8200 nM; in series [6] (Homo sapiens, MCF7, MCF-7 colonies, GraphPad Prism, FIG. 5A), 700 nM; in series [7] (Homo sapiens, MDA-MB-231 colonies, GraphPad Prism, FIG. 5B), 1500 nM. Besides, the IC100 in series [6] (Homo sapiens, MCF7, complete inhibition, FIG. 2B, read-out: concentration from which MCF-7 colony formation is completely inhibited) amounted to 2.5 µM. Moreover, the figures for the MCC in series [13] and in series [14] were 1000 nM and around 2500 nM, respectively. Further, in [15] (100 μM, read-out: % Alive), the survival at 100 µM is 100%. For the same compound, the mortality at 100 µM in series [15] (100 μM, read-out: % Dead) amounted to 0%. Also, the survival at 250 µM in [15] (250 μM, read-out: % Alive) worked out at 100%. Moreover, in series [15] (250 μM, read-out: % Dead), the mortality at 250 µM worked out at 0%. In series [15] (500 μM, read-out: % Alive), the survival at 500 µM is 87.5%. For the same compound, the mortality at 500 µM in series [15] (500 μM, read-out: % Dead) was determined as 12.5%.
